Bridge positions count the residues as written; N and C are the ends. Square brackets hold non-standard residues; d marks the D form. Peptide text beside a SMILES is read from it. * marks the point of attachment. X1 = CC[C@H](C)CCCCC(=O)*; Dab = NCC[C@H](N)C(=O)O
Legend:
lipid A / outer membrane = tested on: lipid A / outer membrane; set-up: method as in PMID 6414364, PMID 10956216; conditions: ref [20],[21]; cited from earlier work
[1] = tested on: LPS (rough-LPS extracted from E. coli F583, Rd mutant); test: Mechanistic SPR study, purified LPS; format: binding; conditions: for Rmax normalized by molecular weight ratio PMB:PMBN: LPS surface
Experimental: OMV-coated and whole cell-coated C1 chips were prepared as already described with the following changes and LPS-coated surfaces were prepared identically but with rough-LPS extracted from E. coli F583 (Rd mutant, Sigma #L6893). For LPS, cloudy colloid suspension (above its CMC, ~1 mg/ml) contains LPS micelles that were injected and captured. For all formats, sample buffer and running buffer were composed of Dulbecco’s phosphate-buffered salt solution containing 0.0005% tween-80 (Sigma), 1 mM calcium and 0.5 mM magnesium (Fisher Scientific), pH 7.4. Analysis and compartment temperatures were both set to 37 °C. Freshly prepared OMV-coated or whole cell-coated sensing surfaces were employed for each injection of polymyxin B while LPS-coated sensing surfaces could be fully regenerated by injecting 50 mM CHAPS. Reversibly bound PMBN could be reinjected over all surfaces without requiring regeneration as it fully dissociated within a few minutes.
Serial doubling dilutions of PMBN were injected from […] over whole cells and OMVs at […] for 1 min (Fig. 3A, B). This was repeated over LPS-coated sensing surfaces and, in this case, serial doubling dilutions of PMBN were injected from 5 mM to 0.625 mM for 30 s at […], immediately prior to injection of […] polymyxin B for 200 s at […] (Fig. 3D).
Fresh sensing surfaces coated with whole cells and OMVs were prepared and 325 nM polymyxin B was injected at […] for 120 s over both. This injection was repeated after a long delay, and without regeneration, in order to allow free sites to become available thereby resulting in two polymyxin B binding curves for each sensing surface (Fig. 3E, F). A fresh LPS-coated surface was prepared and polymyxin B was injected using SCK injection mode over a serial doubling dilution range from 625 nM to 39 nM.
Section 1 - Mechanistic studies of polymyxins
The interaction models introduced here (Eqn (S1-S3)) are annotated in terms of binding of polymyxin B (PMB) to LPS but also apply to any other affinity binding pair. Molar concentrations of bound PMB are converted to SPR response as R = G.MW.[PMB], where MW is the molecular weight of PMB, and G is a mass-to-response conversion factor. A full quantitative interpretation of SPR sensitivity has been reported1. In a general case, a protein concentration of 0.01 (g/L) produces a response of 1 response unit (RU) yielding the proportionality constant G=100 (L/g).
Here, we assume protein is distributed uniformly within a […] thick hydrogel, dissolved in buffer at near physiological salt concentrations in the absence of high concentrations of high refractive index substances, such as glycerol and DMSO. This calibration may be adjusted for variability in the refractive index increment when working with buffers or other classes of molecules such as nucleic acids, polysaccharides, or drug-like molecules. In addition, binding interactions confined to planar sensing surfaces (i.e., no hydrogel matrix) results in a 1.3-fold increased response due to minimal decay in SPR sensitivity when close to the sensing surface (e.g., < 10 nm). Change in protein accumulation over time produces responses that are indicated here by a time subscript (e.g., R(t)). A simple 1:1 model for binding of PMB to LPS to form an affinity complex PMBL is given by the pseudo-first-order model defined by Eqn (S1). dR/dt = (kon.[PMB]i.(Rmax-R(t)) -koff.R(t)) Eqn (S1)
Where R is the SPR response for accumulation of affinity complex PMBL. [PMB]i is the injected concentration of PMB and Rmax is the saturation response assuming full target occupancy. This model assumes that mass transport of PMB within the flow cell, which governs the rate of exchange of PMB between the bulk liquid and the sensing surface, is non-limiting. However, this […]
in the 1:1 two-compartment model in Eqn (S2). dR/dt = (kon.[PMB].(Rmax-R(t)) -koff.R(t)) + kt.([PMB]i(t) – [PMB]) Eqn (S2) […]

E. coli WT = format: cell-based
Experimental: (§1) Bacterial strains and plasmids are listed in SI Table S5. LB growth media was prepared according to manufacturer’s instructions and supplemented with 0.2% arabinose and carbenicillin (50 μg/mL) for the strains containing pBAD24-mcr1 plasmid. Cultures were started by inoculating 3 ml LB with 1–2 colonies from fresh overnight plates and grown at 37 °C until in log phase. Modified minimal inhibitory concentration (MIC) assays were performed in 96-well round bottom polystyrene plates (Corning) with a final volume of 100 µl in LB supplemented with tween-80 at 0.0005%. […] Polymyxin B sulfate (TCI Co. Ltd), polymyxin B nonapeptide (PMBN) (Sigma), and brevicidine (Genentech) were diluted directly in the assay plates. Bacteria were diluted in LB with tween-80 0.0005% and added to a final OD600 of 0.0005. Growth was measured via OD600 on a SpectraMax M5 plate reader after overnight static growth at 37 °C with humidity.

S. aureus WT = format: cell-based
Experimental: as §1

[2] = tested on: polymyxin B-resistant E. coli cells expressing mcr-1; test: Whole cell SPR, E. coli expressing mcr-1; format: binding
Experimental: Bacterial strains were grown in LB or LB with 0.2% arabinose and carbenicillin (50 μg/mL) to log phase (OD600 approximately 0.4–0.6), centrifuged for 10 min at 2500 × g (3500 rpm using a tabletop centrifuge), and re-suspended in PBS to a final OD600 of approximately 5. SPR on whole bacterial cells was performed and analyzed as described for OMVs on C1 chip, but with an additional carry-over wash prior to the capture. Regeneration of the chip after whole cell binding also required additional steps ([…] flow rate): (1) PBS supplemented with 32 mM MgCl2 for 120 s, (2) 2.5 M NaCl for 30 s, (3) 0.5% SDS (Desorb 1, Cytiva) for 60 s with carry over controls between.

[3] = LPS pre-saturated with polymyxin B

SMILES	antibacterial activity and lipid A binding (lipid A / outer membrane)	change in affinity and binding capacity after pre-saturation [1, 3]	fold loss in affinity [1, 3] [fold]	fold loss in binding capacity [1, 3] [fold]	Rmax normalized by molecular weight ratio PMB:PMBN [1] [RU]	antibacterial activity (E. coli WT)	MIC (E. coli WT; LB + 0.0005% tween-80, OD600 0.0005, overnight static growth 37 °C, complete growth inhibition) [µM]	consumption of available LPS ([1]; immediately after polymyxin B saturation)	Kd ([1]; two LPS densities, pre-saturated with polymyxin B, SCK from 625 nM, Eq. S3, (± SE)) [nM]	MIC (S. aureus WT; LB + 0.0005% tween-80, overnight 37 °C) [µM]	antibacterial activity (S. aureus WT; highest tested concentration)	SPR binding profile [2]
CC(C)C[C@@H]1NC(=O)[C@@H](Cc2ccccc2)NC(=O)[C@H](CCN)NC(=O)[C@@H](NC(=O)[C@H](CCN)NC(=O)[C@@H](N)[C@@H](C)O)CCNC(=O)[C@H]([C@@H](C)O)NC(=O)[C@H](CCN)NC(=O)[C@H](CCN)NC1=O [PMBN] (H-T[Dab][Dab][Dab][dF]L[Dab][Dab]T; lactam 3-C)	do not possess antibacterial activity, nonetheless bind to lipid A and permeabilize the outer membrane	two-fold drop in both affinity and binding capacity	2	2	415	lacks the antibacterial activity of polymyxin B	>40	–	–	–	–	–
CC[C@H](C)CCCCC(=O)N[C@@H](CCN)C(=O)N[C@H](C(=O)N[C@@H](CCN)C(=O)N[C@H]1CCNC(=O)[C@H]([C@@H](C)O)NC(=O)[C@H](CCN)NC(=O)[C@H](CCN)NC(=O)[C@H](CC(C)C)NC(=O)[C@@H](Cc2ccccc2)NC(=O)[C@H](CCN)NC1=O)[C@@H](C)O [Polymyxin B] (X1-[Dab]T[Dab][Dab][Dab][dF]L[Dab][Dab]T; lactam 4-C (inferred); N-terminus assumed)	–	–	–	–	407	–	–	~ 40%	127	>40	no activity at the highest tested concentration	same polymyxin B binding profiles were observed
